According to paper PMC5562523 (Cell chemical biology, 2017):

Experiments:
[1] = system: CDC1551 (ΔphoPR); assay type: cell-based; details: acidic pH
[2] = system: CDC1551 katG::Tn mutant; assay type: cell-based, Mycobacterium tuberculosis; details: pH 5.7

COc1ccc(NC(=O)c2nc(S(C)(=O)=O)ncc2Cl)cc1Cl [AC2P36, 5-chloro-N-(3-chloro-4-methoxyphenyl)-2-methylsulfonylpyrimidine-4-carboxamide]
sensitivity of ΔphoPR mutant vs WT to AC2P36 [1]: no differences were observed between WT or ΔphoPR sensitivity to AC2P36 | sensitivity of WT, katG::Tn mutant and complemented strain to AC2P36 [2]: No difference was observed between the three strains
